We go through eleven molecules from US7550133B2, “Respiratory drug condensation aerosols and methods of making and using them” (Alexza Pharmaceuticals, Inc., priority 2002, dated 2009).

Data set [1] can be described thus: Volatilization Using Stainless Steel Foil; HPLC analysis of the condensation aerosol. It counts as physicochemical. Conditions: for Purity of the aerosol (purity analysis): single drug on stainless steel foil substrate (5 cm^2), film thickness about 0.4-1.2 μm, capacitor charged to 15 V; for Purity of each drug in the aerosol from a mixture of albuterol and flunisolide: about 0.20 mg flunisolide and about 0.16 mg albuterol co-coated on stainless steel foil (5 cm^2), film about 0.64 μm, capacitor 15.5 V. The text has this:
Strips of clean 304 stainless steel foil (0.0125 cm thick, Thin Metal Sales) having dimensions 1.3 cm by 7.0 cm were dip-coated approximately 4.5 to 5 cm on the strip with an asthma drug solution prepared as described above. The foil was then partially dipped three times into solvent to rinse drug off of the last 2-3 cm of the dipped end of the foil. Alternatively, the drug-coating from this bottom 2-3 cm area was carefully taken off with a razor blade. The final coated area was between 2.0-2.5 cm by 1.3 cm on both sides of the foil, for a total area of between 5.2-6.5 cm^2. Foils were prepared as stated above and then some were extracted with methanol or acetonitrile as standards. The amount of drug was determined from quantitative HPLC analysis. Using the known drug-coated surface area, the thickness was then calculated.
After drying, the drug-coated foil was placed into a volatilization chamber constructed of a Delrin block (the airway) and brass bars, which served as electrodes. The dimensions of the airway were 1.3 cm high by 2.6 cm wide by 8.9 cm long. The drug-coated foil was placed into the volatilization chamber such that the drug-coated section was between the two sets of electrodes. After securing the top of the volatilization chamber, the electrodes were connected to a 1 Farad capacitor (Phoenix Gold). The back of the volatilization chamber was connected to a two micron Teflon® filter (Savillex) and filter housing, which were in turn connected to the house vacuum. Sufficient airflow was initiated (typically 30 L/min=1.5 m/sec), at which point the capacitor was charged with a power supply, typically to between 14-17 Volts.
The circuit was closed with a switch, causing the drug-coated foil to resistively heat to temperatures of about 280-430° C. (as measured with an infrared camera (FLIR Thermacam SC3000)), in about 200 milliseconds. After the drug had vaporized, airflow was stopped and the Teflon® filter was extracted with acetonitrile. Drug extracted from the filter was analyzed generally by HPLC UV absorbance generally at 225 nm using a gradient method aimed at detection of impurities to determine percent purity. Also, the extracted drug was quantified to determine a percent yield, based on the mass of drug initially coated onto the substrate. A percent recovery was determined by quantifying any drug remaining on the substrate and chamber walls, adding this to the quantity of drug recovered in the filter and comparing it to the mass of drug initially coated onto the substrate.

Data set [2] is described as follows: Volatilization from stainless steel cylinder (flashbar); HPLC analysis of the condensation aerosol. It counts as physicochemical. As to conditions: drug dip coated on stainless steel flashbar, capacitors 20.5 volts, heated to about 400° C. within about 200 milliseconds, 15 L/min room air. An excerpt: A hollow stainless steel cylinder with thin walls, typically 0.12 mm wall thickness, a diameter of 13 mm, and a length of 34 mm was cleaned in dichloromethane, methanol, and acetone, then dried, and fired at least once to remove any residual volatile material and to thermally passivate the stainless steel surface. The substrate was then dip-coated with a drug coating solution (prepared as described above). The dip-coating was done using a computerized dipcoating machine to produce a thin layer of drug on the outside of the substrate surface. The substrate was lowered into the drug solution and then removed from the solvent at a rate of typically 5-25 cm/sec. (To coat larger amounts of material on the substrate, the substrate was removed more rapidly from the solvent or the solution used was more concentrated.) The substrate was then allowed to dry for 30 minutes inside a fume hood. If either dimethylformamide (DMF) or a water mixture was used as a dip-coating solvent, the substrate was vacuum dried inside a desiccator for a minimum of one hour. The drug-coated portion of the cylinder generally has a surface area of 8 cm^2. By assuming a unit density for the drug, the initial drug coating thickness was calculated. The amount of drug coated onto the substrates was determined in the same manner as that described above: the substrates were coated, then extracted with methanol or acetonitrile and analyzed with quantitative HPLC methods, to determine the mass of drug coated onto the substrate.
The drug-coated substrate was placed in a surrounding glass tube connected at the exit end via Tygon® tubing to a filter holder fitted with a Teflon® filter (Savillex). The junction of the tubing and the filter was sealed with paraffin film. The substrate was placed in a fitting for connection to two 1 Farad capacitors wired in parallel and controlled by a high current relay. The capacitors were charged by a separate power source to about 18-22 Volts and most of the power was channeled to the substrate by closing a switch and allowing the capacitors to discharge into the substrate. The substrate was heated to a temperature of between about 300-500° C. in about 100 milliseconds. The heating process was done under an airflow of 15 L/min, which swept the vaporized drug aerosol into a 2 micron Teflon® filter.
After volatilization, the aerosol captured on the filter was recovered for quantification and analysis. The quantity of material recovered in the filter was used to determine a percent yield, based on the mass of drug coated onto the substrate. The material recovered in the filter was also analyzed generally by HPLC UV absorbance at typically 225 nm using a gradient method aimed at detection of impurities, to determine purity of the thermal vapor. Any material deposited on the glass sleeve or remaining on the substrate was also recovered and quantified to determine a percent total recovery ((mass of drug in filter+mass of drug remaining on substrate and glass sleeve)/mass of drug coated onto substrate). For compounds without UV absorption GCMS or LC/MS was used to determine purity and to quantify the recovery. Some samples were further analyzed by LC/MS to confirm the molecular weight of the drug and any degradants.
About 1.2 mg of albuterol was dip coated onto the stainless steel surface of a flashbar apparatus. (The flashbar is a cylinder 3.5 cm long and 1.3 cm in diameter consisting of a hollow tube of 0.005″ thick stainless steel). Brass electrodes were connected to either end of the steel cylinder. The coated flashbar was secured in an electrical mount, which connected to two 1.0 Farad capacitors in parallel. An airway was provided by a 2 cm diameter glass sleeve placed around the flashbar. 15 L/min of room air were pulled by a house vacuum through the vaporization chamber and a filter housing, which contained a two-micron Teflon filter. […]

For the molecule `CCCn1c(=O)c2[nH]c(C3CCCC3)nc2n(CCC)c1=O` [CPX], in data set [1], the “Purity of the aerosol (purity analysis)” value was determined as 99.8%.
Consider `CC1(C)O[C@@H]2C[C@H]3[C@@H]4CCC5=CC(=O)C=C[C@]5(C)[C@@]4(F)[C@@H](O)C[C@]3(C)[C@]2(C(=O)CO)O1` [triamcinolone acetonide], for which the “Purity of the aerosol (purity analysis by HPLC)” value in data set [2] is on record as “about 92.0%”.
Turning to `CC(C)Cn1c(=O)n(C)c(=O)c2[nH]cnc21` [IBMX], the “Purity of the aerosol (purity analysis)” value in data set [1] was determined as 99.9%.
In the case of `CC(C)(C)NCC(O)c1ccc(O)c(CO)c1` (centres unmarked) [albuterol], the “Purity of each drug in the aerosol from a mixture of albuterol and flunisolide” value in data set [1] is on record as 97.2%. In addition, the “Purity of the aerosol (purity analysis by HPLC)” value in data set [2] is 94.4%.
For the molecule `CCC(=O)O[C@]1(C(=O)SCF)[C@H](C)C[C@H]2[C@@H]3C[C@H](F)C4=CC(=O)C=C[C@]4(C)[C@@]3(F)[C@@H](O)C[C@@]21C` [fluticasone propionate], the “Purity of the aerosol (purity analysis)” value in data set [1] was determined as 91.6%.
Regarding flunisolide, in data set [1], the “Purity of each drug in the aerosol from a mixture of albuterol and flunisolide” value turned out to be 94.5%; the “Purity of the aerosol (purity analysis)” value was 94.9%. In addition, the “Purity of the aerosol (purity analysis by HPLC)” value in data set [2] came to 97.6%.
`CC(C)NCC(O)c1cc(O)cc(O)c1` (centres unmarked) [metaproterenol]: the “Purity of the aerosol (purity analysis by HPLC)” value in data set [2] amounted to 99.1%.
As for `Cn1c(=O)c2[nH]cnc2n(C)c1=O` [theophylline], the “Purity of the aerosol (purity analysis by HPLC)” value in data set [2] is “about 99.5%”.
As for `CC(C)C(=O)OCC(=O)[C@@]12O[C@H](C3CCCCC3)O[C@@H]1C[C@H]1[C@@H]3CCC4=CC(=O)C=C[C@]4(C)[C@H]3[C@@H](O)C[C@@]12C` [ciclesonide], the “Purity of the aerosol (purity analysis)” value in data set [1] is 99.03%.
For `CC(C)(C)NCC(O)c1cc(O)cc(O)c1` (centres unmarked) [terbutaline], the “Purity of the aerosol (purity analysis by HPLC)” value in data set [2] is 99.3%.
The same measure, in the same setting: the value for `CCCC1O[C@@H]2C[C@H]3[C@@H]4CCC5=CC(=O)C=C[C@]5(C)[C@H]4[C@@H](O)C[C@]3(C)[C@]2(C(=O)CO)O1` (some centres unmarked) [budesonide] was 70.5%.
